# Measured values as given in BindingDB's records for doi:10.1021/jm990614i (Harvard Medical School, 2000).
# pIC50: −log10 of the molar value.
# What was measured:
# [1] = biological target: Aldehyde dehydrogenase, mitochondrial (Mesocricetus auratus); assay: Inhibition of Hamster Liver mitochondrial ALDH-2
# [2] = biological target: Aldehyde dehydrogenase, mitochondrial (Mesocricetus auratus); assay: Compound was evaluated for the inhibition of Hamster Liver mitochondrial ALDH-2
Structure (SMILES),pIC50 [1],pIC50 [2]
C=CCOc1ccc2c(=O)c(-c3ccc(O)cc3)coc2c1 [7-Allyloxy-3-(4-hydroxy-phenyl)-chromen-4-one],6.10,
"O=c1c(-c2ccc(O)cc2)coc2cc(OCCC3OCCCO3)ccc12 [7-(2-[1,3]Dioxan-2-yl-ethoxy)-3-(4-hydroxy-phenyl)-chromen-4-one]",6.40,
CCOc1ccc2c(=O)c(-c3ccc(O)cc3)coc2c1 [7-Ethoxy-3-(4-hydroxy-phenyl)-chromen-4-one],7.40,
"O=c1c(-c2ccc(O)cc2)coc2cc(OCC(O)CO)ccc12 (stereo unspecified) [7-(2,3-Dihydroxy-propoxy)-3-(4-hydroxy-phenyl)-chromen-4-one]",,7.00

# Results, then the molecule that gave them:
pIC50 [1],pIC50 [2],Structure (SMILES)
8.05,,O=C(O)CCCCCCOc1ccc2c(=O)c(-c3ccc(O)cc3)coc2c1 [7-[3-(4-Hydroxy-phenyl)-4-oxo-4H-chromen-7-yloxy]-heptanoic acid]
8.40,,O=C(O)CCCCCCCCCOc1ccc2c(=O)c(-c3ccc(O)cc3)coc2c1 [10-(3-(4-hydroxyphenyl)-4-oxo-4H-chromen-7-yloxy)decanoic acid]
